{
  "source": "patent US20130316010A1",
  "about": "“POLYMERIC MICROPARTICLES” (Case Western Reserve University, priority 2010, published 2013)",
  "origin": "cited, not measured here",
  "system": "EGFR",
  "settings": "rodent glaucomatous optic neuropathy model and optic nerve crush model",
  "data": [
    {"substance": "AG1478", "values": [
      {"measurement": "EGFR upregulation and activation of astrocytes", "result": "reverses this upregulation and activation of astrocytes"},
      {"measurement": "survival of RGCs", "result": "increases the survival of RGCs"}
    ]}
  ]
}
